Read-outs that look alike come from different tables or passages of the source.
Assays:
Type in all cases: in vivo
SSAO = SSAO (Rattus norvegicus (Rat), UniProt O08590); experiment: SSAO Target Engagement in rat plasma and liver; conditions: for activity at 0.005 mg/kg / activity at 0.025 mg/kg / activity at 0.12 mg/kg / activity at 0.6 mg/kg / activity at 3 mg/kg / activity at 15 mg/kg: mean ± SEM
Experimental: The SSAO activity in rat plasma and liver tissues are measured using the MAO-Glo™ assay kit from Promega (V1402). The residual SSAO activity in rats after compound treatment is estimated by measuring the total amine oxidase activity in plasma or liver lysates that are insensitive to the presence of the MAO inhibitor Clogyline and Pargyline. Rats are administered the compound of Example 2 at the doses of 15, 3, 0.6, 0.12, 0.025, 0.005 mg/kg. The control group is administered with the same volume (2 ml/kg) of the dosing vehicle (hydroxyethyl cellulose 1% w/v, 0.25% Tween 80). Plasma and liver at 2 or 24 hours post compound treatment are harvested and stored at −78° C. until analysis. Tissue lysates are prepared by homogenization in a lysis buffer (20 mM HEPES, pH 7.4, 150 mM NaCl, 1 mM EDTA, 1 mM EGTA, 1% Triton X-100 and 1× Roche Complete protease inhibitor tablet). Tissue particles are removed by centrifugation at 12,000 rpm at 4° C. for 30 minutes. 40 μl of plasma or liver lysates is incubated with Clogyline (10 μM) and Pargyline (10 μM) for 20 minutes at room temperature before the addition of the luminogenic substrate (50 μM) for 60 minutes. The product generated is quantified according to the manufacture's procedure. The fraction of activity that is insensitive to the presence of the MAO inhibitors is used as the surrogate for the residual SSAO activity. The compound of Example 2 was evaluated in the protocol essentially as described above administered at various doses.

[1] = Plasma compound levels in 3H diet mice by mass spectroscopy; conditions: mouse, treated 76 days, 2 hours after the last dose, all doses
Experimental: Male C57BL/6N mice are fed with D09100301 diet (Research Diets, 40% fat, 2% cholesterol, 24% fructose, (the, high fat, high cholesterol and high fructose, the “3H diet”) for 150 days. Each mouse is then singly housed after 5 days for an acclimation period. Plasma alanine aminotransferase (ALT) and cytokeratin 18 (CK18) are measured. After one week of recovery, the mice are randomized into 5 groups based on their ALT values, CK18 values, and body weight. Animals of each group are administrated either vehicle (0.5% methylcellulose (MC)+0.25% Tween 80 in distilled water) or the compound of Example 6 (at a 0.06, 2, 6, and 20 mg/kg dose) once daily in a volume of 5 ml/kg for 11 weeks. Blood is collected from mice treated with the compound of Example 6 for 76 days 2 hours after the last dose. Compound levels in the plasma are analyzed by mass spectroscopy.

[2] = system: C57BL/6N mice fed 3H diet; experiment: Mouse Model of NASH and Fibrosis Induced by 3H Diet; conditions: mouse 3H diet; for Score (0-3) Hepatic inflammation Left / Score (0-3) Macrovesicular vaculation Left / Score (0-3) Perisinusoidal fibrosis Left: left lobe; for Score (0-3) Hepatic inflammation Left / Score (0-3) Macrovesicular vaculation Left / Score (0-3) Perisinusoidal fibrosis Left / Score (0-3) Hepatic inflammation Right / Score (0-3) Macrovesicular vaculation Right / Score (0-3) Perisinusoidal fibrosis Right: mean ± SEM; for Score (0-3) Hepatic inflammation Right / Score (0-3) Macrovesicular vaculation Right / Score (0-3) Perisinusoidal fibrosis Right: right lobe
Experimental: Male C57BL/6N mice are fed with D09100301 diet (Research Diets, 40% fat, 2% cholesterol, 24% fructose, (the, high fat, high cholesterol and high fructose, the “3H diet”) for 150 days. Each mouse is then singly housed after 5 days for an acclimation period. Plasma alanine aminotransferase (ALT) and cytokeratin 18 (CK18) are measured. After one week of recovery, the mice are randomized into 5 groups based on their ALT values, CK18 values, and body weight. […] Blood is collected from mice treated with the compound of Example 6 for 76 days 2 hours after the last dose. Compound levels in the plasma are analyzed by mass spectroscopy. […] At the completion of the study, the animals are sacrificed and their livers excised. Two sections of the left and right lobes are fixed in neutral buffered 10% formalin. Liver tissue slides are stained with hematoxylin and eosin (H&E), Sirius red, and Masson's Trichrome to prepare slides for pathological analysis. All specimens are examined microscopically and scored as a modified Brunt score NASH Activity Score. Scores are based on the grading scheme and end-points as described in Brunt E. M. et al., “Histopathology of nonalcoholic fatty liver disease,” World J. of Gastroenterol, 2010, 16(42), 5286-5296. Group means are then calculated for each individual end-point. The following endpoints are used to characterize the fast food model of NASH in mice as modified from NASH endpoints (See Brunt, E. M. “Histopathology of nonalcoholic fatty liver disease,” Clin Liver Dis., 2009, 13, 533-544 and Brunt, E. M, et al., “Nonalcoholic steatohepatitis: A proposal for grading and staging the histological lesions”, Am J Gastroenterology, 1999, 94(9), 2467-2474.

[3] = liver, 24 hour, n = 6, read-out: SSAO Activity (%) Liver 24 hour
[4] = plasma, 2 hour, n = 6, read-out: SSAO Activity (%) Plasma 2 hour
[5] = plasma, 24 hour, n = 6, read-out: SSAO Activity (%) Plasma 24 hour
[6] = 20 mg/kg once daily 11 weeks, p < 0.05 vs vehicle

Sequence of SSAO (O08590 whole entry): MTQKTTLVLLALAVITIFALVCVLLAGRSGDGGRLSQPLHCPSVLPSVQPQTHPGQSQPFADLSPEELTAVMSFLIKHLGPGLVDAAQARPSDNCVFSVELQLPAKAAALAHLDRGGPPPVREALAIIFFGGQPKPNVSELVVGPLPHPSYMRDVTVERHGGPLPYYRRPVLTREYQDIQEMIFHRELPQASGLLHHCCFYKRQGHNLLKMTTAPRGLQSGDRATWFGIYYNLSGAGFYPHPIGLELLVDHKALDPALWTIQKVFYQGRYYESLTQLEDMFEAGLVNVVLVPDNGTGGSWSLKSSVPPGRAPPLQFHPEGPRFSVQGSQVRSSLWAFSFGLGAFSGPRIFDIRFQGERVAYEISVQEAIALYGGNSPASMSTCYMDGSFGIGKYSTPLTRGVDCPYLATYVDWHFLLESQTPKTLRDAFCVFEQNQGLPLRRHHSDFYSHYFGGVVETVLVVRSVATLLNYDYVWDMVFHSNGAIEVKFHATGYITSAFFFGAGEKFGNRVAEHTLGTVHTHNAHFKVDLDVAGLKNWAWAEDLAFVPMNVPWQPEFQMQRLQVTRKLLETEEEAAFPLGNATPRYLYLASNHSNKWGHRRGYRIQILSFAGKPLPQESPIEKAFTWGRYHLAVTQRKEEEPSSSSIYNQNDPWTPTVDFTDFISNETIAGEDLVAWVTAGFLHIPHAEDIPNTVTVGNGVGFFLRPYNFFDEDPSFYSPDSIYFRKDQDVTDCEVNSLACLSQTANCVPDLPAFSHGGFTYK

Cl.Cl.NC/C(=C\F)COc1cnc(N2CCC(O)CC2)nc1 [Example 2, 1-[5-[(E)-2-(Aminomethyl)-3-fluoro-allyloxy]pyrimidin-2-yl]piperidin-4-ol dihydrochloride]
activity at 0.005 mg/kg (SSAO; [3]): 75 ± 18% | activity at 0.005 mg/kg (SSAO; [4]): 31 ± 3% | activity at 0.005 mg/kg (SSAO; [5]): 70 ± 7% | activity at 0.025 mg/kg (SSAO; [3]): 68 ± 14% | activity at 0.025 mg/kg (SSAO; [4]): 21 ± 1% | activity at 0.025 mg/kg (SSAO; [5]): 55 ± 9% | activity at 0.12 mg/kg (SSAO; [3]): 45 ± 8% | activity at 0.12 mg/kg (SSAO; [4]): 7 ± 1% | activity at 0.12 mg/kg (SSAO; [5]): 35 ± 4% | activity at 0.6 mg/kg (SSAO; [3]): 16.2 ± 2.9% | activity at 0.6 mg/kg (SSAO; [4]): 4.3 ± 0.8% | activity at 0.6 mg/kg (SSAO; [5]): 16.3 ± 2.6% | activity at 3 mg/kg (SSAO; [3]): 7.1 ± 1.7% | activity at 3 mg/kg (SSAO; [4]): 3.6 ± 1% | activity at 3 mg/kg (SSAO; [5]): 8.8 ± 1.3% | activity at 15 mg/kg (SSAO; [3]): 9.6 ± 2.6% | activity at 15 mg/kg (SSAO; [4]): -0.6 ± 0.3% | activity at 15 mg/kg (SSAO; [5]): 6.6 ± 1.8% | inhibition of SSAO activity in rat plasma and liver (SSAO; doses 0.005 to 15 mg/kg): dose-dependently inhibits SSAO activity

Cl.Cl.NC/C(=C\F)COc1cnc(N2CC[C@H](O)C2)nc1 [Example 6, (3S)-1-[5-[(E)-2-(Aminomethyl)-3-fluoro-allyloxy]pyrimidin-2-yl]pyrrolidin-3-ol; Dihydrochloride]
plasma compound levels (in words) [1]: dose-dependent increase | Score (0-3) Hepatic inflammation Left ([2]; 0.6 mg/kg once daily 11 weeks): 2.6 ± 0.1 | Score (0-3) Macrovesicular vaculation Left ([2]; 0.6 mg/kg once daily 11 weeks): 2.5 ± 0.1 | Score (0-3) Perisinusoidal fibrosis Left ([2]; 0.6 mg/kg once daily 11 weeks): 2.4 ± 0.2 | Score (0-3) Hepatic inflammation Right ([2]; 0.6 mg/kg once daily 11 weeks): 2.5 ± 0.1 | Score (0-3) Macrovesicular vaculation Right ([2]; 0.6 mg/kg once daily 11 weeks): 2.6 ± 0.1 | Score (0-3) Perisinusoidal fibrosis Right ([2]; 0.6 mg/kg once daily 11 weeks): 1.9 ± 0.2 | Score (0-3) Hepatic inflammation Left ([2]; 2 mg/kg once daily 11 weeks): 2.5 ± 0.1 | Score (0-3) Macrovesicular vaculation Left ([2]; 2 mg/kg once daily 11 weeks): 2.5 ± 0.1 | Score (0-3) Perisinusoidal fibrosis Left ([2]; 2 mg/kg once daily 11 weeks): 2.5 ± 0.2 | Score (0-3) Hepatic inflammation Right ([2]; 2 mg/kg once daily 11 weeks): 2.6 ± 0.1 | Score (0-3) Macrovesicular vaculation Right ([2]; 2 mg/kg once daily 11 weeks): 2.7 ± 0.1 | Score (0-3) Perisinusoidal fibrosis Right ([2]; 2 mg/kg once daily 11 weeks): 1.8 ± 0.2 | Score (0-3) Hepatic inflammation Left ([2]; 6 mg/kg once daily 11 weeks): 2.5 ± 0.2 | Score (0-3) Macrovesicular vaculation Left ([2]; 6 mg/kg once daily 11 weeks): 2.9 ± 0.1 | Score (0-3) Perisinusoidal fibrosis Left ([2]; 6 mg/kg once daily 11 weeks): 2.6 ± 0.2 | Score (0-3) Hepatic inflammation Right ([2]; 6 mg/kg once daily 11 weeks): 2.6 ± 0.2 | Score (0-3) Macrovesicular vaculation Right ([2]; 6 mg/kg once daily 11 weeks): 2.7 ± 0.1 | Score (0-3) Perisinusoidal fibrosis Right ([2]; 6 mg/kg once daily 11 weeks): 2.1 ± 0.3 | hepatic inflammation (in words) ([2]; 20 mg/kg): significant decrease | macrovesicular vaculation (in words) ([2]; 20 mg/kg): significant decrease | perisinusoidal fibrosis (in words) ([2]; 20 mg/kg): significant decrease | Score (0-3) Macrovesicular vaculation Left ([2]; 20 mg/kg once daily 11 weeks): 2.4 ± 0.2 | Score (0-3) Perisinusoidal fibrosis Left ([2]; 20 mg/kg once daily 11 weeks): 1.9 ± 0.2 | Score (0-3) Hepatic inflammation Left ([2]; 20 mg/kg once daily 11 weeks, p < 0.01 vs vehicle): 2.1 ± 0.1 | Score (0-3) Hepatic inflammation Right [2, 6]: 2.1 ± 0.1 | Score (0-3) Macrovesicular vaculation Right [2, 6]: 2.3 ± 0.1 | Score (0-3) Perisinusoidal fibrosis Right [2, 6]: 1.5 ± 0.2 | triglyceride levels in blood (in words) ([2]; 6 and 20 mg/kg): decreased triglyceride levels | ALT (in words) ([2]; all treated groups): significant decrease

From patent publication US10793552B2, “Amino pyrimidine ssao inhibitors” (Eli Lilly and Company, priority 2016, dated 2020)
